According to patent US8410309B2, “Phenoxy carboxylic acid compounds and compositions for delivering active agents” (Emisphere Technologies, Inc., priority 1999, dated 2013):
Values joined by “and” are separate entries in the source; they are usually repeats but may differ in a detail not shown here. Equal entries are not always repeated.

Assay: Heparin oral/intracolonic delivery, clotting time by activated partial thromboplastin time (APTT)
Type: in vivo, Sprague-Dawley rats
Settings: IC (intracolonic), rats; delivery agent compound 50 mg/kg, heparin 25 mg/kg, volume dose 1 ml; baseline about 20 seconds
Method: Oral gavage (PO) and/or intracolonic (IC) dosing solutions containing a delivery agent compound and heparin sodium USP were prepared in 25% aqueous propylene glycol. […] This dry mixture was dissolved in 25% v/v aqueous propylene glycol, vortexed, and placed in a sonicator (about 37° C.). The pH was adjusted to about 7 (6.5 to 8.5) with aqueous NaOH (2N). The dosing solution was sonicated to produce a clear solution. The final volume was adjusted to about 3.0 ml.
(§1) The typical dosing and sampling protocols were as follows. […] The dosing solution was expressed slowly into the colon by pressing the syringe plunger.
Citrated blood samples were collected by cardiac puncture following the administration of ketamine (88 mg/kg), typically at 0.25, 0.5, 1.0 and 1.5 hours after dosing. Heparin absorption was verified by an increase in clotting time measured by the activated partial thromboplastin time (APTT) according to the method of Henry, J. B., Clinical Diagnosis and Management by Laboratory Methods, Philadelphia, Pa., W.B. Saunders (1979). Previous studies indicated baseline values of about 20 seconds.

Row | SMILES | Mean Peak APTT ± SD
1 | O=C(O)CCCOc1ccccc1O [Compound 4] | 40.3 ± 17.8 s and 23.076 ± 4.72 s and 37.148 ± 39.67 s
2 | O=C(O)CCCCCCCCCOc1ccccc1O [Compound 8] | 251.94 ± 67.96 s
3 | CC(=O)c1ccccc1OCCCC(=O)O [Compound 9] | 21.45 ± 1.71 s
4 | Nc1cc(Cl)ccc1OCCCCCCCC(=O)O [Compound 22] | 287.9 ± 120.1 s
5 | CCC(=O)c1ccccc1OCCCC(=O)O [Compound 26] | 76.7 s and 41.534 ± 25.56 s
6 | CCC(=O)c1ccccc1OCCCCCCCC(=O)O [Compound 28] | 143.6 ± 44 s and 251.1 ± 109.34 s
7 | CCC(=O)c1ccccc1OCCCCCCCCCC(=O)O [Compound 29] | 105.01 ± 115.28 s and 111.46 ± 108.58 s
8 | COc1ccccc1OCCCCCCCC(=O)O [Compound 35] | 65.8 ± 35.5 s
9 | CNC(=O)c1ccccc1OCCCCCCCCCC(=O)O [Compound 51] | 92.5 ± 41.5 s
10 | CC(=O)c1ccccc1OCCCCCCCCCC(=O)O [Compound 54] | 31.56 ± 7.54 s
11 | CC(=O)c1ccc(OCCCCCCCC(=O)O)cc1 [Compound 62] | 152.41 ± 136.63 s and 91.204 ± 117.43 s
12 | CC(=O)c1cccc(OCCCCCCCC(=O)O)c1 [Compound 64] | 220.988 ± 122.2 s and 125.372 ± 114.72 s

Assay: Low molecular weight heparin (LMWH) oral/intracolonic delivery, plasma LMWH by anti-Factor Xa assay
Type: in vivo, Sprague-Dawley rats
Settings: IC, rats; delivery agent compound 10 mg/kg, LMWH 750 IU/kg, 1 ml/kg
Method: Oral dosing (PO) and/or intracolonic (IC) compositions containing a delivery agent compound and low molecular weight heparin (LMWH) were prepared in 25% aqueous propylene glycol. […] Typically, the delivery agent compound and LMWH (Parnaparin, 91 IU/mg average molecular weight about 5,000, available from Opocrin, Modena, Italy) (typically 90-105 IU/mg, average molecular weight about 5,000) were mixed by vortex as dry powders. This dry mixture was dissolved in 25% v/v aqueous propylene glycol, vortexed, and placed in a sonicator (37° C.) to produce a clear solution. The pH was adjusted to about 7 (6.5-8.5) with 2N aqueous NaOH. The dosing solution was sonicated to produce a clear solution. The final volume was adjusted to 3.0 ml.
as §1
Citrated blood samples were collected by cardiac puncture following the administration of ketamine (88 mg/kg), typically at 0.5, 1.0, 2.0, 3.0 and 4.0 hours after dosing. LMWH absorption was verified by an increase in plasma LMWH measured by the anti-Factor Xa assay CHROMOSTRATE™ Heparin anti-Xa assay (available from Organon Teknika Corporation, Durham, N.C.). […] The peak of these mean plasma LMWH concentrations is reported below in Table 5.

Row | Mean Peak Plasma LMWH Concentration ± SD [IU/ml] | SMILES
13 | 0.396 ± 0.153 | Nc1cc(Cl)ccc1OCCCCCCCC(=O)O [Compound 22]

Same assay, conditions: IC, rats; delivery agent compound 25 mg/kg, LMWH 750 IU/kg, 1 ml/kg

Row | Mean Peak Plasma LMWH Concentration ± SD [IU/ml] | SMILES
14 | 1.496 ± 0.153 | Nc1cc(Cl)ccc1OCCCCCCCC(=O)O [Compound 22]
15 | 1.43 ± 0.31 | CCC(=O)c1ccccc1OCCCCCCCC(=O)O [Compound 28]

Same assay, conditions: IC, rats; delivery agent compound 50 mg/kg, LMWH 750 IU/kg, 1 ml/kg

Row | Mean Peak Plasma LMWH Concentration ± SD [IU/ml] | SMILES
16 | 0.474 ± 0.095 | CC(=O)c1ccccc1OCCCC(=O)O [Compound 9]
17 | 0.65 ± 0.37 | Nc1ccccc1OCCCCCCCC(=O)O [Compound 19]
18 | 1.842 ± 0.205 | Nc1cc(Cl)ccc1OCCCCCCCC(=O)O [Compound 22]
19 | 0.262 ± 0.106 | CCC(=O)c1ccccc1OCCCC(=O)O [Compound 26]
20 | 1.64 ± 0.45 | CCC(=O)c1ccccc1OCCCCCCCC(=O)O [Compound 28]
21 | 3.046 ± 0.422 | CC(=O)c1ccccc1OCCCCCCCCCC(=O)O [Compound 54]

Row | SMILES | Mean Peak Plasma LMWH Concentration ± SD [IU/ml]
22 | CCC(=O)c1ccccc1OCCCCCC(=O)O [Compound 27] | 1.622 ± 0.265

Same assay, conditions: IC, rats; delivery agent compound 50 mg/kg, LMWH 750 IU/kg, 1 ml/kg; 50 mg/kg

Row | Mean Peak Plasma LMWH Concentration ± SD | SMILES
23 | 0.952 IU/ml and 1.114 ± 0.254 IU/ml | O=C(O)c1ccc(COc2ccccc2)cc1 [Compound 66]

Assay: Insulin oral delivery, serum human insulin by ELISA
Settings: rats, delivery agent compound 100 mg/kg, insulin 3 mg/kg, 0.5 ml/kg
Method: Oral dosing (PO) compositions of delivery agent compound and human zinc insulin (minimum 26 IU/mg available from Calbiochem—Novabiochem Corp, La Jolla, Calif.) were prepared in deionized water. […] The pH was adjusted to about 7 to 8.5 with NaOH or HCl. […] The final delivery agent compound dose, insulin dose and dose volume amounts are listed below in Table 8.
The typical dosing and sampling protocols were as follows.
Serum insulin levels were determined with an Insulin ELISA Test Kit (Kit # DSL-10-1600 from Diagnostic Systems Laboratories, Inc., Webster, Tex.), modifying the standard protocol in order to optimize the sensitivity and linear range of the standard curve for the volumes and concentrations of the samples used in the present protocol. […] The five values for each time point were averaged and the results plotted as serum insulin concentration versus time.

Row | Mean Peak Serum [INS] ± SD [μU/ml] | SMILES
24 | 240.5 ± 528.29 | CCC(=O)c1ccccc1OCCCC(=O)O [Compound 26]
25 | 147.66 ± 176.71 | O=C(O)CCCCCCCOc1ccccc1Cl [Compound 73]
26 | 70.69 ± 127.89 | O=C(O)CCCCCCCOc1cc([N+](=O)[O-])ccc1O [Compound 74]

Same assay, conditions: rats, delivery agent compound 200 mg/kg, insulin 0.5 mg/kg, 1 ml/kg

Row | Mean Peak Serum [INS] ± SD [μU/ml] | SMILES
27 | 13.14 ± 6.81 | O=C(O)CCCCCCCCCOc1ccccc1O [Compound 8]
28 | 4.32 ± 1.39 | Nc1ccccc1OCCCCCCCC(=O)O [Compound 19]
29 | 24.16 ± 28.11 | Nc1cc(Cl)ccc1OCCCCCCCC(=O)O [Compound 22]
30 | 132.3 ± 154.5 | COc1ccccc1OCCCCCCCC(=O)O [Compound 35]

Assay: Salmon calcitonin (sCT) oral delivery, serum sCT by EIA
Settings: rats, delivery agent compound dose 150 mg/kg, sCT dose 30 μg/kg, dose volume 1 (ml)
Method: Oral dosing (PO) compositions of a delivery agent compound and salmon calcitonin (sCT) in deionized water were prepared as described in Table 2 below. […] Either the sodium salt of the compound was used or the free acid was converted to the sodium salt by stirring the resultant solution and adding one equivalent of sodium hydroxide (1.0 N) and diluting with water. The solution was vortexed, then heated (about 37° C.) and sonicated. The pH was adjusted to about 7 (about 6.5 to 8.5) with NaOH or HCl. 90 μg sCT from a sCT stock solution (2 mg/ml made by adding 10001 pH 4 phosphate buffer to sCT and allowing it to go into solution by sitting for about 10-20 minutes and periodically gently inverting) was added to the solution.
The typical dosing and sampling protocols were as follows. Male Sprague-Dawley rats weighing between 200-250 g were fasted for 24 hours and administered ketamine (44 mg/kg) and chlorpromazine (1.5 mg/kg) 15 minutes prior to dosing and again as needed to maintain anesthesia. A dosing group of five animals was administered one of the dosing solutions. For oral dosing, an 11 cm Rusch 8 French catheter was adapted to a 1 ml syringe with a pipette tip. The syringe was filled with dosing solution by drawing the solution through the catheter, which was then wiped dry. The catheter was placed down the esophagus leaving 1 cm of tubing past the incisors. Solution was administered by pressing the syringe plunger.
Blood samples were collected serially from the tail artery, typically at time=0, 10, 20, 30, 60 and 90 minutes. […] Numbers were adjusted according to baseline values obtained at time=0. The results from the animals in each dosing group were averaged for each time point.

Row | Mean Peak Serum sCT (pg/ml ± SD) (SE) [pg/mL] | SMILES
31 | 138 ± 90 | CCC(=O)c1ccccc1OCCCCCCCC(=O)O [Compound 28]
32 | 34 ± 47 | CC(=O)c1ccccc1OCCCCCCCCCC(=O)O [Compound 54]
33 | 117 ± 158 | CC(=O)c1ccc(OCCCCCCCC(=O)O)cc1 [Compound 62]
34 | 138 ± 148 | CC(=O)c1cccc(OCCCCCCCC(=O)O)c1 [Compound 64]

Row | SMILES | Mean Peak Serum sCT (pg/ml ± SD) (SE) [pg/mL]
35 | CCC(=O)c1ccccc1OCCCCCC(=O)O [Compound 27] | 163 ± 106

Same assay, conditions: rats, delivery agent compound dose 150 mg/kg, sCT dose 30 μg/kg, dose volume 1 (ml), 150 mg/kg

Row | SMILES | Mean Peak Serum sCT (pg/ml ± SD) (SE)
36 | O=C(O)CCCOc1ccccc1O [Compound 4] | 187 ± 177 pg/mL and 195 ± 436 pg/mL
37 | O=C(O)CCCCCCCCCOc1ccccc1O [Compound 8] | 166 ± 190 pg/mL and 194 ± 239 pg/mL and 327 ± 323 pg/mL

Same assay, conditions: rats, delivery agent compound dose 150 mg/kg, sCT dose 30 μg/kg, dose volume 2 (ml)

Row | Mean Peak Serum sCT (pg/ml ± SD) (SE) [pg/mL] | SMILES
38 | 36 ± 49 | O=C(O)CCCCCCCCCOc1ccccc1O [Compound 8]

Same assay, conditions: rats, delivery agent compound dose 150 mg/kg, sCT dose 30 μg/kg, dose volume 4 (ml)

Row | Mean Peak Serum sCT (pg/ml ± SD) (SE) [pg/mL] | SMILES
39 | 109 ± 244 | O=C(O)c1ccc(COc2ccccc2)cc1 [Compound 66]

Assay: Recombinant human growth hormone (rhGH) oral delivery, serum rhGH by immunoassay
Settings: oral gavage, rats; delivery agent compound 200 mg/kg, rhGH 3 mg/kg, volume dose 1 ml
Method: Oral gavage (PO) dosing solutions of delivery agent compound and rhGH in phosphate buffer were prepared by mixing. A solution of the delivery agent compound was made either with the sodium salt of the delivery agent compound or by converting the free acid to its sodium salt.
The typical dosing and sampling protocols were as follows. Male Sprague-Dawley rats weighing 200-250 g were fasted for 24 hours and administered ketamine (44 mg/kg) and chlorpromazine (1.5 mg/kg) 15 minutes prior to dosing and again as needed to maintain anesthesia. A dosing group of five animals was administered one of the dosing solutions. An 11 cm Rusch 8 French catheter was adapted to a 1 ml syringe with a pipette tip. The syringe was filled with dosing solution by drawing the solution through the catheter, which was then wiped dry. The catheter was placed down the esophagus leaving 1 cm of tubing past the incisors. The dosing solution was administered by pressing the syringe plunger.
Blood samples were collected serially from the tail artery typically at time=15, 30, 45, 60 and 90 minutes. The five samples from each time period were pooled (except for those samples for which standard deviation (SD) and standard error (SE) are reported). Serum rHGH concentrations were quantified by an rHGH immunoassay test kit (Kit # K1F4015 from Genzyme Corporation Inc., Cambridge, Mass.).

Row | Mean Peak Serum [rhGH] [ng/mL] | SMILES
40 | 12.6 | O=C(O)CCCOc1ccccc1O [Compound 4]
41 | 4.88 | O=C(O)CCCCCCCCCOc1ccccc1O [Compound 8]
42 | 1 | CC(=O)c1ccccc1OCCCC(=O)O [Compound 9]
43 | 39.5 | Nc1ccccc1OCCCCCCCC(=O)O [Compound 19]
44 | 0 | Nc1cc(Cl)ccc1OCCCCCCCC(=O)O [Compound 22]
45 | 8.3 | CCC(=O)c1ccccc1OCCCC(=O)O [Compound 26]
46 | 0 | CCC(=O)c1ccccc1OCCCCCCCCCC(=O)O [Compound 29]
47 | 6.37 | CC(=O)c1ccccc1OCCCCCCCCCC(=O)O [Compound 54]
48 | 6.2 | CC(=O)c1ccc(OCCCCCCCC(=O)O)cc1 [Compound 62]
49 | 5 | CC(=O)c1cccc(OCCCCCCCC(=O)O)c1 [Compound 64]
50 | 0 | O=C(O)c1ccc(COc2ccccc2)cc1 [Compound 66]

Row | SMILES | Mean Peak Serum [rhGH] [ng/mL]
51 | CCC(=O)c1ccccc1OCCCCCC(=O)O [Compound 27] | 12.9
